Where a name gives a salt, the structure may show the parent alone. Read-outs that look alike come from different tables or passages of the source. Values belong to the compound of their own block, whether it stands above or below them.
Legend:
[1] = target: T1, α1B-adrenoceptor (Rattus norvegicus, UniProt P15823); assay: Receptor binding assay, [3H]prazosin, rat liver membranes; details: rat liver membranes, 0.5 nM [3H]prazosin; read-out: RBA (Ki nM) α1B
T1 construct: from tissue; host or cells: rat liver membranes
T1 sequence (P15823 1-515): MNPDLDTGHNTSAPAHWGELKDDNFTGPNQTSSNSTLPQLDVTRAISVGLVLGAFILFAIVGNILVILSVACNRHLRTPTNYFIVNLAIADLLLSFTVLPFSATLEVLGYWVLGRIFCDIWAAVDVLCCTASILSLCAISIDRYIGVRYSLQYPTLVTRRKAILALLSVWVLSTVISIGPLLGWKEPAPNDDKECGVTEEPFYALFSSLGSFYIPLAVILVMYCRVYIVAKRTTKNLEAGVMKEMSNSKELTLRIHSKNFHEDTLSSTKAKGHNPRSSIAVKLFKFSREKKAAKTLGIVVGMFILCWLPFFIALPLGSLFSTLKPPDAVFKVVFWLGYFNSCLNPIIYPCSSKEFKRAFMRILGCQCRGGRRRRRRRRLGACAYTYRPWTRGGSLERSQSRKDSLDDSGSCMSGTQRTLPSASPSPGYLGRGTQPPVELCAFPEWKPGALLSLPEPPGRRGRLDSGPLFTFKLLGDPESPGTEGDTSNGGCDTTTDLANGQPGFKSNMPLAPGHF
Method: (§1) Receptor binding assays, (RBA's) were performed for native α1-adrenoceptors. Rat submaxillary and rat liver membrane preparations were used to assess the affinity for α1A and α1B subtypes, respectively. Aliquots of membrane protein ([…]) were incubated in a final volume of […] assay buffer (50 mM Tris, 0.5 mM EDTA at pH 7.4) with 0.5 nM [^3H] prazosin for 60 mins at 28 ° C. Reaction was stopped by rapid filtration on Millipore filters. Filters were dried and bound radioactivity counted. Non-specific binding was determined in the presence of 0.3 mM prazosin.

[2] = target: T2, α1A-adrenoceptor (prostate) (Rattus norvegicus, UniProt P43140); assay: In vitro functional assay, phenylephrine-induced contraction of isolated prostate; format: cell-based
T2 construct: Aorta, prostate and spleen tissues were isolated from urethane anaesthetized (1.5 gm/kg) male wistar rats; from tissue; host or cells: isolated prostate of male Wistar rats
T2 sequence (P43140 1-466): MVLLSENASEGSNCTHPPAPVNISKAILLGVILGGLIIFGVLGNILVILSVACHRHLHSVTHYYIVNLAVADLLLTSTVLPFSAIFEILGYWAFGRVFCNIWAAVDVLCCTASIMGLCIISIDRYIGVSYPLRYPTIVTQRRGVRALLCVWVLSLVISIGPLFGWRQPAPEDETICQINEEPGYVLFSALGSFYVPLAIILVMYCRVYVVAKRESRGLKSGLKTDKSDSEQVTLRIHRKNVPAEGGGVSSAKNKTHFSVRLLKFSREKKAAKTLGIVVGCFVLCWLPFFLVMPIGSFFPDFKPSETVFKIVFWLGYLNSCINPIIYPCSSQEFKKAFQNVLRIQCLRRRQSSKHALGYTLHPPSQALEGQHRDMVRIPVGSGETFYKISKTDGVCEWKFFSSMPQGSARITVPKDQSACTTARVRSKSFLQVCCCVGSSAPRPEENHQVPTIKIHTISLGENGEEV
From the text: (§2) In order to study selectivity of action of the present compounds towards different α-adrenoceptor subtypes, the ability of these compounds to antagonize α1-adrenoceptor agonist induced contractile response of aorta (α1D), prostate (α1A) and spleen (α1B) was studied. Aorta, prostate and spleen tissues were isolated from urethane anaesthetized (1.5 gm/kg) male wistar rats. Isolated tissues were mounted in organ bath containing Krebs Henseleit buffer of the following composition (mM): NaCl 118; KCl 4.7; CaCl2 2.5; MgSO4·H2O 1.2; NaHCO3 25; KH2PO4 1.2; glucose 11.5. Buffer was maintained at 37° C. and aerated with a mixture of 95% O2 and 5% CO2. A resting tension of 2 g (aorta) or 1 g (spleen and prostate) was applied to tissues. Contractile response was monitored using a force displacement transducer and recorded on chart recorders. Tissues were allowed to equilibrate for 2 hours. At the end of equilibration period, concentration response curves to norepinephrine (aorta) and phenylephrine (spleen and prostate) were obtained in the absence and presence of the tested compound (at concentrations of 0.1, 1 and 10 μM). Antagonist affinity was calculated and expressed as PKB values in Table 1.

[3] = target: T3, α1B-adrenoceptor (spleen) (Rattus norvegicus, UniProt P15823); assay: In vitro functional assay, phenylephrine-induced contraction of isolated spleen; format: cell-based
T3 construct: Aorta, prostate and spleen tissues were isolated from urethane anaesthetized (1.5 gm/kg) male wistar rats; from tissue; host or cells: isolated spleen of male Wistar rats
T3 sequence (P15823 1-515): T1 sequence (P15823 1-515)
From the text: as §2

[4] = target: T4, α1D-adrenoceptor (aorta) (Rattus norvegicus, UniProt P23944); assay: In vitro functional assay, norepinephrine-induced contraction of isolated aorta; format: cell-based
T4 construct: Aorta, prostate and spleen tissues were isolated from urethane anaesthetized (1.5 gm/kg) male wistar rats; from tissue; host or cells: isolated aorta of male Wistar rats
T4 sequence (P23944 1-561): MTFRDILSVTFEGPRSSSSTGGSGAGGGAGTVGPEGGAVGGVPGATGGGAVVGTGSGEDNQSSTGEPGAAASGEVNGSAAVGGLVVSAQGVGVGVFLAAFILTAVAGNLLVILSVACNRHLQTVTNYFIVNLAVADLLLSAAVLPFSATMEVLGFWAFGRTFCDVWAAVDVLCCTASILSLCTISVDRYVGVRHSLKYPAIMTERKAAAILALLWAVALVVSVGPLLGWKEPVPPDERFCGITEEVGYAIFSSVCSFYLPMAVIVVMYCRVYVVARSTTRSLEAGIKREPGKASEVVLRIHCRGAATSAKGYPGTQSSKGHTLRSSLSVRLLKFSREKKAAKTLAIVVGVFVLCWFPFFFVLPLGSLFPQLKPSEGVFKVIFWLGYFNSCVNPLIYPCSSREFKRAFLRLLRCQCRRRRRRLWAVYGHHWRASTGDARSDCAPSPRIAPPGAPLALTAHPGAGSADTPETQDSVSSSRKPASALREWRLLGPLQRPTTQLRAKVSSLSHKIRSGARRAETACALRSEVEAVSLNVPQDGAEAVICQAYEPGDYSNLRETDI
From the text: as §2

[5] = target: T5, α1A-adrenoceptor (Rattus norvegicus, UniProt P43140); assay: Receptor binding assay, [3H]prazosin, rat submaxillary membranes
T5 construct: from tissue; host or cells: rat submaxillary gland membranes
T5 sequence (P43140 1-466): T2 sequence (P43140 1-466)
Method: as §1

[6] = rat prostate, phenylephrine, read-out: In Vitro Functional Assay (pKB) α1A (converted)
[7] = rat spleen, phenylephrine, read-out: In Vitro Functional Assay (pKB) α1B (converted)
[8] = rat aorta, norepinephrine, read-out: In Vitro Functional Assay (pKB) α1D (converted)
[9] = rat submaxillary membranes, 0.5 nM [3H]prazosin, read-out: RBA (Ki nM) α1A

melting point: 244 to 245 °C
Compound: O=C1CCCC(=O)N1CCCN1CCN(c2ccccn2)CC1 (as salt: hydrochloride) [Compound 19, 1-[4-(2-Pyridyl)piperazin-1-yl)-3-(2,6-dioxopiperidin-1-yl)propane]

Ki [1]: 267 nM
Kb [2, 6]: 6.31 nM
Kb [3, 7]: 3160 nM
Kb [4, 8]: 3.16 nM
Ki [5, 9]: 9 nM
Compound: Cc1ccccc1N1CCN(CCCN2C(=O)CCCC2=O)CC1 [Compound 18, 1-[4-(2-Methylphenyl)piperazin-1-yl]-3-(2,6-dioxopiperidin-1yl)propane]

Ki [1]: 176 nM
Kb [2, 6]: 316 nM
Kb [3, 7]: 200 nM
Kb [4, 8]: 316 nM
Ki [5, 9]: 2130 nM
Compound: Cc1ccc(N2CCN(CCCN3C(=O)CCCC3=O)CC2)cc1C [Compound 21, 1-[4-(3,4-Dimethylphenyl)piperazin-1-yl]-3-(2,6-dioxopiperidin-1yl)propane]

Further lines, the compound ahead of its results:

Compound: O=C1CCC(=O)N1CCCN1CCN(c2cccc(C(F)(F)F)c2)CC1 (as salt: hydrochloride) [Compound 3, 1-[4-(3-Trifluoromethylphenyl)piperazin-1-yl]-3-(2,5-dioxopyrrolidin-1-yl)propane]
melting point: 218 to 220 °C

Compound: O=C1CCC(=O)N1CCCN1CCN(c2ccccn2)CC1 (as salt: hydrochloride) [Compound 4, 1-[4-(2-Pyridyl)piperazin-1-yl]-3-(2,5-dioxopyrrolidin-1-yl)propane]
melting point: 261 to 262 °C

Compound: O=C1CCC(=O)N1CCCN1CCN(c2cccc(Cl)c2)CC1 (as salt: hydrochloride) [Compound 5, 1-[4-(3-Chlorophenyl)piperazin-1-yl]-3-(2,5-dioxopyrrolidin-1-yl)propane]
melting point: 230 to 231 °C

Compound: COc1ccccc1N1CCN(CCN2C(=O)CCC2=O)CC1 (as salt: hydrochloride) [Compound 10, 1-[4-(2-Methoxyphenyl)piperazin-1-yl]-2-(2,5-dioxopyrrolidin-1-yl)ethane]
melting point: 232 to 234 °C

Compound: O=C1CCCC(=O)N1CCCN1CCN(c2cccc(C(F)(F)F)c2)CC1 (as salt: hydrochloride) [Compound 16, 1-[4-(3-Trifluoromethylphenyl)piperazin-1-yl]-3-(2,6-dioxopiperidin-1-yl)propane]
melting point: 228 to 229 °C

Compound: O=C1CCCC(=O)N1CCCN1CCN(c2cccc(Cl)c2)CC1 (as salt: hydrochloride) [Compound 20, 1-[4-(3-Chlorophenyl)piperazin-1-yl]-3-(2,6-dioxopiperidin-1-yl)propane]
melting point: 214 to 215 °C

Compound: O=C1CCCC(=O)N1CCCN1CCN(c2ccccc2F)CC1 [Compound 17, 1-[4-(2-Fluorophenyl)piperazin-1-yl]-3-(2,6-dioxopiperidin-1-yl)propane]
Ki [1]: 396 nM
Kb [2]: 10 nM
Kb [3]: 79.4 nM
Kb [4]: 12.6 nM
Ki [5]: 21 nM
